Results on 18 compounds are retold here after ChEMBL document CHEMBL2424599, “Design, synthesis, docking study and biological evaluation of some novel tetrahydrochromeno [3',4':5,6]pyrano[2,3-b]quinolin-6(7H)-one derivatives against acetyl- and butyrylcholinesterase” (Eur J Med Chem, 2013).

The target of one assay is Cholinesterase (Equus caballus, UniProt P81908).
The target of assay [1] is T1, Acetylcholinesterase (Electrophorus electricus, UniProt O42275).
Description: Inhibition of electric eel AChE using acetylthiocholine iodide as substrate preincubated for 10 mins prior to substrate addition by Ellman's method
The target of assay [2] is T1, Acetylcholinesterase. In words: Mixed-type inhibition of electric eel AChE using acetylthiocholine iodide as substrate by Lineweaver-Burk plot analysis.

T1 sequence (O42275 whole entry): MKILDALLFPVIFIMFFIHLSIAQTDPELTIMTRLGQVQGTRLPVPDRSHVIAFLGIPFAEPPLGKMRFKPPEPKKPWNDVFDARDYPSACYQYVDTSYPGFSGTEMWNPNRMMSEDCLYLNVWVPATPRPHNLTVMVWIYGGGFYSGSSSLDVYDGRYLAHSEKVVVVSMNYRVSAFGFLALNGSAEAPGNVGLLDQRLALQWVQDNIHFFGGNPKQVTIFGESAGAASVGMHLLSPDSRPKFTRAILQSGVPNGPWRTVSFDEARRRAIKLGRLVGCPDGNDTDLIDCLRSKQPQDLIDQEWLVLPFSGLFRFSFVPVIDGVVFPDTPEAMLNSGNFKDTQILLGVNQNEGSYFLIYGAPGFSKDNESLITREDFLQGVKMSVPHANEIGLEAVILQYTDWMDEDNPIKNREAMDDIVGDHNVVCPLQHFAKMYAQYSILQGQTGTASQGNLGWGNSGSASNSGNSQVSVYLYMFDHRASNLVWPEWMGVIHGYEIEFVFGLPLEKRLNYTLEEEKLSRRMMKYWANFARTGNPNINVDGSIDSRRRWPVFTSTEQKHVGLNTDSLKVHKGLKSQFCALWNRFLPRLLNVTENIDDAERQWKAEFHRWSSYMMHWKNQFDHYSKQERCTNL
Cholinesterase, sequence (P81908 whole entry): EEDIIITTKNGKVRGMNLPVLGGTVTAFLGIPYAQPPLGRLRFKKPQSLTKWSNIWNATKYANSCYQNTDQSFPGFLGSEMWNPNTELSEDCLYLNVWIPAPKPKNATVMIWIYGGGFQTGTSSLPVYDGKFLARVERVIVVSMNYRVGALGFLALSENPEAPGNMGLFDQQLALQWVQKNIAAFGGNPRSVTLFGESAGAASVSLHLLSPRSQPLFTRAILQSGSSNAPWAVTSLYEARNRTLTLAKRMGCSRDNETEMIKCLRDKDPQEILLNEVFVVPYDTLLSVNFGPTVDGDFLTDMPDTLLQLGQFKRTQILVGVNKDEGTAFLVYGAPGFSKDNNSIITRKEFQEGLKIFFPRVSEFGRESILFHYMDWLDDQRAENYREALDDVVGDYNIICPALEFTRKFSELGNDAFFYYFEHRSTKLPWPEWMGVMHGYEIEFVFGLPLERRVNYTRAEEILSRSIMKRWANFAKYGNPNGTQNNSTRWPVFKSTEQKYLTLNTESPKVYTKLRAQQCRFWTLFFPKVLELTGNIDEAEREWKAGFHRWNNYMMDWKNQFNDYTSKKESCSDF

Regarding `CCC1c2c(nc3c(c2N)CCCC3)Oc2c1c(=O)oc1ccccc21` (configuration not stated), the IC50 at Cholinesterase came to 5600 nM; against Acetylcholinesterase [1] it was 266 nM.
As for `CCCCC1c2c(nc3c(c2N)CCCC3)Oc2c1c(=O)oc1ccccc21` (configuration not stated), the values for the IC50 against Cholinesterase and against Acetylcholinesterase [1] were 23000 nM and 57 nM, respectively.
In the same order, the values of `Nc1c2c(nc3c1C(c1ccccc1)c1c(c4ccccc4oc1=O)O3)CCCC2` (configuration not stated) are 1700 nM and 24 nM.
In the same order, the values of `Nc1c2c(nc3c1C(c1cccc(F)c1)c1c(c4ccccc4oc1=O)O3)CCCC2` (configuration not stated) are 890 nM and 67 nM.
With `Nc1c2c(nc3c1C(c1ccc(F)cc1)c1c(c4ccccc4oc1=O)O3)CCCC2` (configuration not stated), the affinity at Acetylcholinesterase [2] corresponds to a Ki of 22.4 nM. Moreover, the IC50 on Cholinesterase came out at 15700 nM; against Acetylcholinesterase [1] it was 5 nM.
Take `Nc1c2c(nc3c1C(c1ccccc1Cl)c1c(c4ccccc4oc1=O)O3)CCCC2` (configuration not stated): the IC50 on Cholinesterase came to 4900 nM; on Acetylcholinesterase [1] it was 35 nM.
As to `Nc1c2c(nc3c1C(c1cccc(Cl)c1)c1c(c4ccccc4oc1=O)O3)CCCC2` (configuration not stated), the figures for the IC50 on Cholinesterase and at Acetylcholinesterase [1] were more than 30000 nM and 288 nM, respectively.
In the same order, the values of `Nc1c2c(nc3c1C(c1ccc(Cl)cc1)c1c(c4ccccc4oc1=O)O3)CCCC2` (configuration not stated) are more than 30000 nM and 93 nM.
On to `Nc1c2c(nc3c1C(c1ccc(Cl)cc1Cl)c1c(c4ccccc4oc1=O)O3)CCCC2` (configuration not stated), for which the IC50 against Cholinesterase was more than 30000 nM; at Acetylcholinesterase [1], 50 nM.
In the same order, the values of `Nc1c2c(nc3c1C(c1cccc([N+](=O)[O-])c1)c1c(c4ccccc4oc1=O)O3)CCCC2` (configuration not stated) are 18300 nM and 141 nM.
In the same order, the values of `Cc1ccc(C2c3c(nc4c(c3N)CCCC4)Oc3c2c(=O)oc2ccccc32)cc1` (configuration not stated) are more than 30000 nM and 14 nM.
On the same counts, the results for `COc1ccc(C2c3c(nc4c(c3N)CCCC4)Oc3c2c(=O)oc2ccccc32)cc1` (configuration not stated) are 840 nM and 16 nM.
As to `COc1ccc(C2c3c(nc4c(c3N)CCCC4)Oc3c2c(=O)oc2ccccc32)cc1OC` (configuration not stated), the IC50 on Cholinesterase amounted to 2100 nM; against Acetylcholinesterase [1], 43 nM.
`COc1cc(C2c3c(nc4c(c3N)CCCC4)Oc3c2c(=O)oc2ccccc32)cc(OC)c1OC` (configuration not stated): the IC50 on Cholinesterase came to 3260 nM; against Acetylcholinesterase [1] it was 69 nM.
In the same order, the values of `Nc1c2c(nc3c1C(c1ccc4c(c1)OCO4)c1c(c4ccccc4oc1=O)O3)CCCC2` (configuration not stated) are 570 nM and 13 nM.
In the same order, the values of `Nc1c2c(nc3c1C(c1ccncc1)c1c(c4ccccc4oc1=O)O3)CCCC2` (configuration not stated) are more than 30000 nM and 53 nM.
In the case of `Nc1c2c(nc3c1C(c1cccs1)c1c(c4ccccc4oc1=O)O3)CCCC2` (configuration not stated), the figures for the IC50 against Cholinesterase and at Acetylcholinesterase [1] were 6700 nM and 84 nM, respectively.
On the same counts, the results for `CC1c2c(nc3c(c2N)CCCC3)Oc2c1c(=O)oc1ccccc21` (configuration not stated) are 1220 nM and 432 nM.
